Source: paper PMC10975047, “Antimicrobial Activity of 2-(Piperazin-1-yl)naphtho[2,3-d]thiazole-4,9-dione against Staphylococcus Strains” (Molecules, 2024)

Biological target: T1, DNA gyrase (Staphylococcus aureus, UniProt P0A0K8+P20831)
T1 construct: gene gyrA; with DNA gyrase subunit B (GyrB)
Experiment: DNA gyrase supercoiling assay (H19 dye fluorescence, ProFoldin kit)
Format: biochemical

T1 sequence (P0A0K8 2-644): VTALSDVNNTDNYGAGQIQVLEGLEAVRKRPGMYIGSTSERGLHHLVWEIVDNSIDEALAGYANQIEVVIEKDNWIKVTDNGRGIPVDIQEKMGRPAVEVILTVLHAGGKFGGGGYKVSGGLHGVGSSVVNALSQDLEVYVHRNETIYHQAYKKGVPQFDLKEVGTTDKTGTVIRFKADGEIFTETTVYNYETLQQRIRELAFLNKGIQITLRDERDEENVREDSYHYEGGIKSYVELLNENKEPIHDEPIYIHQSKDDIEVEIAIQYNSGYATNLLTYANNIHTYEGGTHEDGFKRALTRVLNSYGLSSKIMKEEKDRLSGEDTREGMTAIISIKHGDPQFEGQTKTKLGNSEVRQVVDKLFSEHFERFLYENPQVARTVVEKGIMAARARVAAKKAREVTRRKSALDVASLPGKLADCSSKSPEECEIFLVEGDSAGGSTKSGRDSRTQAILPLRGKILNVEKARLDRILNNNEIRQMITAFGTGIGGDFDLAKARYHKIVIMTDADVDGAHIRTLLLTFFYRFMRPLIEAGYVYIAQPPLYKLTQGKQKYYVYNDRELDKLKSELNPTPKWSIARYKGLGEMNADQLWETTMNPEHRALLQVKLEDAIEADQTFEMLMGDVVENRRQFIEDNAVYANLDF
T1 sequence (P20831 whole entry): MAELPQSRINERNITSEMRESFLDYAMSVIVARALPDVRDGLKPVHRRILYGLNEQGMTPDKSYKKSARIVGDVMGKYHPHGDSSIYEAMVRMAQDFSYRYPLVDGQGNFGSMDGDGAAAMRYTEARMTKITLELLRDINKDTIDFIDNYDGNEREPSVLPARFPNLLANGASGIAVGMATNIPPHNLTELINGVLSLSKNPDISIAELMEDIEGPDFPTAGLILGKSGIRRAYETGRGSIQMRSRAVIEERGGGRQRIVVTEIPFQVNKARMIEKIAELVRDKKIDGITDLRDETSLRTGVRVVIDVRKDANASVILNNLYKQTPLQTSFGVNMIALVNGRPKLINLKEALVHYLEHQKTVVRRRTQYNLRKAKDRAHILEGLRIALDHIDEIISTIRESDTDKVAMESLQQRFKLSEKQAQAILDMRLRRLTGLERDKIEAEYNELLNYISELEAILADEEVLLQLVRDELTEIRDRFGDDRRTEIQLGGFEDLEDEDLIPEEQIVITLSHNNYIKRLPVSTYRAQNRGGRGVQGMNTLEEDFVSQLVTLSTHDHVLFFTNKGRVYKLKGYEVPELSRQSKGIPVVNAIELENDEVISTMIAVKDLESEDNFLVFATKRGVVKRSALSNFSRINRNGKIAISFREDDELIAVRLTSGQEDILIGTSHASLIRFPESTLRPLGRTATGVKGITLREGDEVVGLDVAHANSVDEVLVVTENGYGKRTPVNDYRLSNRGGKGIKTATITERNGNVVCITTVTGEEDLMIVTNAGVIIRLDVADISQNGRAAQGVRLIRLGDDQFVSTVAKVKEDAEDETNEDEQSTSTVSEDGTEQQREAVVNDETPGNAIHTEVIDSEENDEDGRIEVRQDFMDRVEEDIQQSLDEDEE

## O=C1c2ccccc2C(=O)c2sc(N3CCNCC3)nc21 [PNT, 2-(piperazin-1-yl)naphtho[2,3-d]thiazole-4,9-dione]
  IC50: 372 µM
